The test has as its target POLRMT (Homo sapiens (Human), UniProt O00411). Kind of test: homogeneous TR-FRET assay of mitochondrial transcription (inhibition of POLRMT). The note with it: 7.5 nM POLRMT, 15 nM TFB2M, 30 nM TFAM, 0.5 nM DNA template, 500 μM NTPs, 37° C., 60 minutes. The class given is biochemical. As for the experimental part: The inhibitory activity of the compounds of the present invention against POLRMT were determined by assays based on Bergbrede, T., et al., “An adaptable high-throughput technology enabling the identification of specific transcription modulators,” SLAC Discov., 22, 378-386 (2017).
The ability of some compounds of the present invention to inhibit POLRMT were determined in a homogeneous TR-FRET Assay using high-throughput screening in a 384-well plate format. This method is used to monitor the activity of mitochondrial transcription through measurement of its product, a 407 bp long RNA transcript. Detection of the product is facilitated by hybridization of two DNA-oligonucleotide probes to specific and adjacent sequences within the RNA product sequence. Upon annealing of the probes, two fluorophores are coupled directly to an acceptor nucleotide probe (ATT0647, 5′), or introduced via a coupled streptavidin with a biotinylated donor nucleotide probe (Europium cryptate) that is brought into sufficient proximity to serve as a fluorescence-donor-acceptor pair. Thus, a FRET signal at 665 nm is generated upon excitation at 340 nm.
Proteins used as transcription factors (POLRMT: NP_005026.3, TFAM: NP_003192.1, TFB2M: NP_071761.1) are diluted from their stocks to working concentrations of 1 μM, 20 μM and 4 μM respectively, in a dilution buffer containing 20 mM Tris-HCl (pH 8.0), 200 mM NaCl, 10% (v/v) glycerol, 1 mM Dithiothreitol (DTT), 0.5 mM EDTA.
DNA template is a pUC18 plasmid with the mitochondrial light strand promotor sequence (1-477) cloned between HindIII and BamHI sites. The DNA template is restriction linearized proximal to the promotor 3′-end (pUC-LSP). The reaction mixture (10 uL) containing 7.5 nM POLRMT, 15 nM of TFB2M, 30 nM of TFAM, 0.5 nM of DNA template and 500 μM nucleotide triphosphate mix (NTPs) in a reaction buffer (containing 10 mM Tris-HCl (pH 7.5), 10 mM MgCl2, 40 mM NaCl, 10 mM DTT, 0.005% (w/v) Tween-20, 160 units/ml Rnase inhibitor and 0.1 mg/mL BSA) are dispensed to compounds in microplates, using a Thermo Multidrop® dispenser, and incubated at 37° C. in a VWR INCU-Line incubator for 60 minutes after mixing. No nucleotide triphosphate mix is added to negative control samples. Microplates with compounds to be tested in the assay are prepared from 10 mM compound stocks in 100% DMSO, equal amounts of DMSO without any compound are added to positive control and negative control samples.
During the incubation, a mix of the detection reagents is prepared in a buffer such that the enzymatic reaction is terminated due to chelating of Mg-ions and increased ionic strength, containing 50 mM Tris-HCl (pH 7.5), 700 mM NaCl, 20 mM EDTA, and 0.010% (w/v) Tween-20. Europium-streptavidin is pre-incubated with a 200-fold molar excess of a random sequence oligonucleotide to block unspecific binding of oligo, for two hours at ambient temperature in the dark. Afterwards, the blocked Europium-streptavidin is kept on ice until use.
At the end of the enzymatic reaction time, 5 μL detection oligo mix in the detection buffer is added, and assay plates are mixed and kept at ambient temperature for one hour, protected from light. The concentration of the Acceptor nucleotide oligo (e.g., ATTO647N-5′-[…]-3′) and Donor nucleotide oligo (e.g., bio-5′-AACACATCTCT(-bio)GCCAAACCCCA-bio-3′) in each assay well is 1 nM, and 3 nM, respectively.
After incubation with oligo mix, 5 μL of pre-blocked Europium-streptavidin reagent is dispensed to each assay well, assay plates are again mixed and kept at ambient temperature for one hour, protected from light.
The generated signal is measured with BMG Pherastar microtiter plate reader with a TRF light unit, using excitation at 340 nm, an integration time of 200 μs, and a delay time of 100 μs, before detection at 620 nm and 665 nm. The ratio of donor- and acceptor-fluorescence is used as a measure of the generated transcript product (i.e. enzymatic activity).
Sequence of POLRMT (O00411 42-1230): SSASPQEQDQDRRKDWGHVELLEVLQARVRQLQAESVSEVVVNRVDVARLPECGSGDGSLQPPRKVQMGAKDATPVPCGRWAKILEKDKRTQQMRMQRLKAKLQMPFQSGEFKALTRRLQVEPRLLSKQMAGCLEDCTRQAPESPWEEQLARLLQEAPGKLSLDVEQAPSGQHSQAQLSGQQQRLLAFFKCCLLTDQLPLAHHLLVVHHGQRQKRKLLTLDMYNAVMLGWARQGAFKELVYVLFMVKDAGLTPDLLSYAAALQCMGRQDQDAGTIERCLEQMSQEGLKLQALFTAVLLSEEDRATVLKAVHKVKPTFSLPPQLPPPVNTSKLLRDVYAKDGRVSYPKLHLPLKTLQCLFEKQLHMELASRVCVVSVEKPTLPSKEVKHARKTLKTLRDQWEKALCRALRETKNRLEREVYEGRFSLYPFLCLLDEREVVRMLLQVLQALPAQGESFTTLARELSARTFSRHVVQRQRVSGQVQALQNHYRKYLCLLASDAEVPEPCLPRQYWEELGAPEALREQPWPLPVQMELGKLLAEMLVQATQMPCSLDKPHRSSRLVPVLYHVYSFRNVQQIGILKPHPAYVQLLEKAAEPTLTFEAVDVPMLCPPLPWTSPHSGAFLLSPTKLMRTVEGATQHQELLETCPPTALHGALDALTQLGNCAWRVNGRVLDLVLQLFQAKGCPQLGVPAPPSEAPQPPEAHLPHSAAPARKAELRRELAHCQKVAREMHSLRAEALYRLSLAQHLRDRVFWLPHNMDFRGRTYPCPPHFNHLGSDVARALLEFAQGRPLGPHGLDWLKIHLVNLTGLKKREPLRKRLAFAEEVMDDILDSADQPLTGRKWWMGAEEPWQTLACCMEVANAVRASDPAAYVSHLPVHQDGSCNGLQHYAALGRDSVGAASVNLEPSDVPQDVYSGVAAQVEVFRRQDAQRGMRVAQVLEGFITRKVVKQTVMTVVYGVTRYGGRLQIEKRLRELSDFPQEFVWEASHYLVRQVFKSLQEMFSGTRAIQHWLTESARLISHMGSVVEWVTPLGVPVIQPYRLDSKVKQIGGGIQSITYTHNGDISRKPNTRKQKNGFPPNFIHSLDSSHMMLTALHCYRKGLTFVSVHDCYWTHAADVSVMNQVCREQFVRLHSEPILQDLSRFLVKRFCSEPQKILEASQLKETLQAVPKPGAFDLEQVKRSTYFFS
As to `CC(=O)N1CCC(Oc2ccc3c(-c4ccc(F)cc4Cl)cc(=O)oc3c2)CC1` [Example 56, 7-((1-acetylpiperidin-4-yl)oxy)-4-(2-chloro-4-fluorophenyl)-2H-chromen-2-one], the IC50 (in general, the concentration that gives 50% inhibition) came to 8 µM.

As for `COCC(Oc1ccc2c(-c3ccccc3C)cc(=O)oc2c1)C(=O)NCC(F)(F)F` (single isomer, unassigned) [Example 82, 3-methoxy-2-((2-oxo-4-(o-tolyl)-2H-chromen-7-yl)oxy)-N-(2,2,2-trifluoroethyl)propanamide], the IC50 turned out to be 5 µM.

Molecule `Cc1ccccc1-c1cc(=O)oc2cc(O[C@@H]3CCN(C)C3)ccc12` [Example 66, (R)-7-((1-methylpyrrolidin-3-yl)oxy)-4-(o-tolyl)-2H-chromen-2-one] registered an IC50 of 42 µM. Regarding `Cc1cccc(C)c1-c1cc(=O)oc2cc(O[C@H](C)C(=O)N3CCS(=O)(=O)CC3)ccc12` [Example 112, (R)-4-(2,6-dimethylphenyl)-7-((1-(1,1-dioxidothiomorpholino)-1-oxopropan-2-yl)oxy)-2H-chromen-2-one], the IC50 is 65 µM.

`Cc1ccccc1-c1cc(=O)oc2cc(OC(C)C(F)(F)F)ccc12` (stereo not shown) [Example 109, 4-(o-tolyl)-7-((1,1,1-trifluoropropan-2-yl)oxy)-2H-chromen-2-one] returned an IC50 of 0.3 µM. Regarding `CNC(=O)C(CO)Oc1ccc2c(-c3ccccc3C)cc(=O)oc2c1` (single isomer, unassigned) [Example 97, 3-hydroxy-N-methyl-2-[4-(o-tolyl)-2-oxo-chromen-7-yl]oxy-propanamide], the IC50 is 5 µM. For `Cc1ccccc1-c1cc(=O)oc2cc(OC(COC(F)(F)F)C(=O)O)ccc12` (stereo not shown) [Example 106, 2-((2-oxo-4-(o-tolyl)-2H-chromen-7-yl)oxy)-3-(trifluoromethoxy)propanoic acid] the value was 0.03 µM; for `O=C([C@@H](CO)Oc1ccc2c(-c3ccc(F)cc3Cl)cc(=O)oc2c1)N1CCCCC1` [Example 15, (R)-4-(2-chloro-4-fluorophenyl)-7-((3-hydroxy-1-oxo-1-(piperidin-1-yl)propan-2-yl)oxy)-2H-chromen-2-one], 0.4 µM; for `CCCOc1ccc2c(-c3ccccc3)cc(=O)oc2c1` [Example 113, 4-phenyl-7-propoxy-2H-chromen-2-one], 4 µM. `COCC(Oc1ccc2c(-c3ccc(F)cc3Cl)cc(=O)oc2c1)C(N)=O` (single isomer, unassigned) [Example 75, 2-((4-(2-chloro-4-fluorophenyl)-2-oxo-2H-chromen-7-yl)oxy)-3-methoxypropanamide] came in with an IC50 of 2 µM. This IC50 lies about 2-fold lower than the previous one. The same measure for “2-((4-(2-chloro-4-fluorophenyl)-2-oxo-2H-chromen-7-yl)oxy)-3-methoxypropanamide [Example 77]”: 2 µM; for `CCOCC(Oc1ccc2c(-c3ccccc3C)cc(=O)oc2c1)C(N)=O` (stereo not shown) [Example 100]: 0.9 µM. With `COCCNC(=O)C(COC)Oc1ccc2c(-c3ccccc3C)cc(=O)oc2c1` (single isomer, unassigned) [Example 87, 3-methoxy-N-(2-methoxyethyl)-2-((2-oxo-4-(o-tolyl)-2H-chromen-7-yl)oxy)propanamide], the IC50 is 36 µM. The same measure for `CCNC(=O)C(COC)Oc1ccc2c(-c3ccccc3C)cc(=O)oc2c1` (single isomer, unassigned) [Example 80, N-ethyl-3-methoxy-2-((2-oxo-4-(o-tolyl)-2H-chromen-7-yl)oxy)propanamide]: 15 µM. For `C[C@@H](Oc1ccc2c(-c3ccc(F)cc3Cl)cc(=O)oc2c1)C(=O)N1CCS(=O)(=O)CC1` [Example 110, (R)-4-(2-chloro-4-fluorophenyl)-7-((1-(1,1-dioxidothiomorpholino)-1-oxopropan-2-yl)oxy)-2H-chromen-2-one] the value was 0.5 µM; for `COCCOc1ccc2c(-c3ccccc3C)cc(=O)oc2c1` [Example 09, 7-(2-methoxyethoxy)-4-(o-tolyl)-2H-chromen-2-one], 0.9 µM.

Molecule `CC(=O)N1CCCC(Oc2ccc3c(-c4ccc(F)cc4Cl)cc(=O)oc3c2)C1` (stereo not shown) [Example 57, 7-((1-acetylpiperidin-3-yl)oxy)-4-(2-chloro-4-fluorophenyl)-2H-chromen-2-one] gave an IC50 of 4 µM. For `Cc1ccccc1-c1cc(=O)oc2cc(OC(C)C)ccc12` [Example 05, 7-isopropoxy-4-(o-tolyl)-2H-chromen-2-one] the value was 0.1 µM; for `CCC(COC)Oc1ccc2c(-c3ccccc3C)cc(=O)oc2c1` (single isomer, unassigned) [Example 46, 7-((1-methoxybutan-2-yl)oxy)-4-(o-tolyl)-2H-chromen-2-one], 0.3 µM; for `Cc1cc(O)cc2oc(=O)cc(-c3ccccc3)c12` [Example 22, 7-hydroxy-5-methyl-4-phenyl-2H-chromen-2-one], 34 µM. As to `Cc1ccccc1-c1cc(=O)oc2cc(OCC3CCCCO3)ccc12` (single isomer, unassigned) [Example 40, 7-((tetrahydro-2H-pyran-2-yl)methoxy)-4-(o-tolyl)-2H-chromen-2-one], 3 µM corresponded to half-maximal inhibition (IC50).

`CCCOc1ccc2c(-c3ccncc3C)cc(=O)oc2c1` [Example 54, 4-(3-methylpyridin-4-yl)-7-propoxy-2H-chromen-2-one] returned an IC50 of 3 µM. On to `CCCOc1ccc2c(-c3csc(C)c3C)cc(=O)oc2c1` [Example 51, 4-(4,5-dimethylthiophen-3-yl)-7-propoxy-2H-chromen-2-one], for which the IC50 is 0.4 µM. For `Cc1ccccc1-c1cc(=O)oc2cc(OC(C)C)cc(C)c12` [Example 58, 7-isopropoxy-5-methyl-4-(o-tolyl)-2H-chromen-2-one] the value was 0.4 µM; for `Cc1ccccc1-c1cc(=O)oc2cc(O)ccc12` [Example 01, 7-hydroxy-4-(o-tolyl)-2H-chromen-2-one], 3 µM. The same measure for `COCC(Oc1ccc2c(-c3ccccc3Cl)cc(=O)oc2c1)C(N)=O` (single isomer, unassigned) [Example 95, 2-((4-(2-chlorophenyl)-2-oxo-2H-chromen-7-yl)oxy)-3-methoxypropanamide]: 14 µM; for `COCC(Oc1ccc2c(-c3ccc(F)cc3Cl)cc(=O)oc2c1)C(=O)O` (stereo not shown) [Example 73, 2-((4-(2-chloro-4-fluorophenyl)-2-oxo-2H-chromen-7-yl)oxy)-3-methoxypropanoic acid]: 3 µM. Molecule `Cc1ccccc1-c1cc(=O)oc2cc(O[C@@H](CO)C(=O)O)ccc12` [Example 103, (S)-3-hydroxy-2-((2-oxo-4-(o-tolyl)-2H-chromen-7-yl)oxy)propanoic acid] registered an IC50 of 16 µM. For `CNC(=O)C(COC)Oc1ccc2c(-c3ccccc3Cl)cc(=O)oc2c1` (single isomer, unassigned) [Example 92, 2-((4-(2-chlorophenyl)-2-oxo-2H-chromen-7-yl)oxy)-3-methoxy-N-methylpropanamide] the value was 0.4 µM. For `Cc1ccccc1-c1cc(=O)oc2cc(OCCO)ccc12` [Example 03, 7-(2-hydroxyethoxy)-4-(o-tolyl)-2H-chromen-2-one] the value was 2 µM.

For the molecule `CCCOc1ccc2c(-c3ccc(F)cc3Cl)cc(=O)oc2c1` [Example 31, 4-(2-chloro-4-fluorophenyl)-7-propoxy-2H-chromen-2-one], the IC50 turned out to be 0.2 µM.

Source of the values: patent US20240368106A1, “HYDROXY AND ALKOXY COUMARINS AS MODULATORS OF POLRMT” (Pretzel Therapeutics, Inc., priority 2021, published 2024).
